What was measured:
CaV2.2 = molecular target: T1, CaV2.2 (Homo sapiens, UniProt Q00975); assay: VIPR optical membrane potential assay with electrical stimulation, CaV2.2; type: cell-based; conditions: Table 9, CaV 2.2 receptors
T1 construct: expressed in transfected cells; host or cells: HEK293
Method: A. Optical Methods for Assaying CaV Inhibition Properties of Compounds:
(§1) Antagonist properties of test compounds were assessed as follows. Cells expressing the CaV of interest were placed into microtiter plates. After an incubation period, the cells were stained with fluorescent dyes sensitive to the transmembrane potential. The test compounds were added to the microtiter plate. The cells were stimulated with electrical means to evoke a CaV dependent membrane potential change from unblocked channels, which was detected and measured with trans-membrane potential-sensitive dyes. Antagonists were detected as a decreased membrane potential response to the stimulus.
(§2) VIPR® Optical Membrane Potential Assay Method with Electrical Stimulation
The following is an example of how CaV2.2 inhibition activity is measured using the optical membrane potential method. Other subtypes are performed in an analogous mode in a cell line expressing the CaV of interest.
HEK293 cells stably expressing CaV2.2 are plated into 96-well microtiter plates. After an appropriate incubation period, the cells are stained with the voltage sensitive dyes CC2-DMPE/DiSBAC2(3) as follows.
(§3) 2X CC2-DMPE=20 μM CC2-DMPE: 10 mM CC2-DMPE is vortexed with an equivalent volume of 10% Pluronic, followed by vortexing in required amount of HBSS containing 10 mM HEPES. Each cell plate will require 5 mL of 2×CC2-DMPE. 50 μL of 2×CC2-DMPE is added to wells containing washed cells, resulting in a 10 μM final staining concentration. The cells are stained for 30 minutes in the dark at RT.
Vortex in required amount of Bath X with beta-cyclodextrin. Each 96 well cell plate will require 5 ml of 2XCC2DMPE. Wash plate with ELx405 with Bath X, leaving a residual volume of 50 μL/well. Add 50 μL of 2XCC2DMPE & […] to each well. Stain for 30 minutes in the dark at RT.
Allow solution to sit for 10 minutes. Slowly mix in 370 mM BaCl2. This solution can be used to solvate compound plates. Note that compound plates are made at 1.5× drug concentration and not the usual 2X. Wash CC2 stained plate, again, leaving residual volume of 50 μL. Add 100 uL/well of the AY17 solution. Stain for 15 minutes in the dark at RT. Run plate on the optical reader.
(§4) The instrument comprises a microtiter plate handler, an optical system for exciting the coumarin dye while simultaneously recording the coumarin and oxonol emissions, a waveform generator, a current- or voltage-controlled amplifier, and a device for inserting electrodes in well. Under integrated computer control, this instrument passes user-programmed electrical stimulus protocols to cells within the wells of the microtiter plate.
Insert or use electrodes into each well to be assayed.
(§5) Use the current-controlled amplifier to deliver stimulation wave pulses for 3-5 s. Two seconds of pre-stimulus recording are performed to obtain the un-stimulated intensities. Five seconds of post-stimulation recording are performed to examine the relaxation to the resting state.
(§6) Data are analyzed and reported as normalized ratios of background-subtracted emission intensities measured in the 460 nm and 580 nm channels. Background intensities are then subtracted from each assay channel. Background intensities are obtained by measuring the emission intensities during the same time periods from identically treated assay wells in which there are no cells. The response as a function of time is then reported as the ratios obtained using the following formula: […]
(§7) The data is further reduced by calculating the initial (Ri) and final (Rf) ratios. These are the average ratio values during part or all of the pre-stimulation period, and during sample points during the stimulation period. The response to the stimulus R=Rf/Ri is then calculated.
Control responses are obtained by performing assays in the presence of a compound with the desired properties (positive control), such as mibefradil, and in the absence of pharmacological agents (negative control).

NaV1.3 = molecular target: T2, NaV1.3 (Homo sapiens, UniProt Q9NY46); assay: VIPR optical membrane potential assay with electrical stimulation, NaV1.3; type: cell-based; conditions: Table 9, NaV 1.3 receptors
T2 construct: expressed in transfected cells; host or cells: HEK293
T2 sequence (Q9NY46 whole entry): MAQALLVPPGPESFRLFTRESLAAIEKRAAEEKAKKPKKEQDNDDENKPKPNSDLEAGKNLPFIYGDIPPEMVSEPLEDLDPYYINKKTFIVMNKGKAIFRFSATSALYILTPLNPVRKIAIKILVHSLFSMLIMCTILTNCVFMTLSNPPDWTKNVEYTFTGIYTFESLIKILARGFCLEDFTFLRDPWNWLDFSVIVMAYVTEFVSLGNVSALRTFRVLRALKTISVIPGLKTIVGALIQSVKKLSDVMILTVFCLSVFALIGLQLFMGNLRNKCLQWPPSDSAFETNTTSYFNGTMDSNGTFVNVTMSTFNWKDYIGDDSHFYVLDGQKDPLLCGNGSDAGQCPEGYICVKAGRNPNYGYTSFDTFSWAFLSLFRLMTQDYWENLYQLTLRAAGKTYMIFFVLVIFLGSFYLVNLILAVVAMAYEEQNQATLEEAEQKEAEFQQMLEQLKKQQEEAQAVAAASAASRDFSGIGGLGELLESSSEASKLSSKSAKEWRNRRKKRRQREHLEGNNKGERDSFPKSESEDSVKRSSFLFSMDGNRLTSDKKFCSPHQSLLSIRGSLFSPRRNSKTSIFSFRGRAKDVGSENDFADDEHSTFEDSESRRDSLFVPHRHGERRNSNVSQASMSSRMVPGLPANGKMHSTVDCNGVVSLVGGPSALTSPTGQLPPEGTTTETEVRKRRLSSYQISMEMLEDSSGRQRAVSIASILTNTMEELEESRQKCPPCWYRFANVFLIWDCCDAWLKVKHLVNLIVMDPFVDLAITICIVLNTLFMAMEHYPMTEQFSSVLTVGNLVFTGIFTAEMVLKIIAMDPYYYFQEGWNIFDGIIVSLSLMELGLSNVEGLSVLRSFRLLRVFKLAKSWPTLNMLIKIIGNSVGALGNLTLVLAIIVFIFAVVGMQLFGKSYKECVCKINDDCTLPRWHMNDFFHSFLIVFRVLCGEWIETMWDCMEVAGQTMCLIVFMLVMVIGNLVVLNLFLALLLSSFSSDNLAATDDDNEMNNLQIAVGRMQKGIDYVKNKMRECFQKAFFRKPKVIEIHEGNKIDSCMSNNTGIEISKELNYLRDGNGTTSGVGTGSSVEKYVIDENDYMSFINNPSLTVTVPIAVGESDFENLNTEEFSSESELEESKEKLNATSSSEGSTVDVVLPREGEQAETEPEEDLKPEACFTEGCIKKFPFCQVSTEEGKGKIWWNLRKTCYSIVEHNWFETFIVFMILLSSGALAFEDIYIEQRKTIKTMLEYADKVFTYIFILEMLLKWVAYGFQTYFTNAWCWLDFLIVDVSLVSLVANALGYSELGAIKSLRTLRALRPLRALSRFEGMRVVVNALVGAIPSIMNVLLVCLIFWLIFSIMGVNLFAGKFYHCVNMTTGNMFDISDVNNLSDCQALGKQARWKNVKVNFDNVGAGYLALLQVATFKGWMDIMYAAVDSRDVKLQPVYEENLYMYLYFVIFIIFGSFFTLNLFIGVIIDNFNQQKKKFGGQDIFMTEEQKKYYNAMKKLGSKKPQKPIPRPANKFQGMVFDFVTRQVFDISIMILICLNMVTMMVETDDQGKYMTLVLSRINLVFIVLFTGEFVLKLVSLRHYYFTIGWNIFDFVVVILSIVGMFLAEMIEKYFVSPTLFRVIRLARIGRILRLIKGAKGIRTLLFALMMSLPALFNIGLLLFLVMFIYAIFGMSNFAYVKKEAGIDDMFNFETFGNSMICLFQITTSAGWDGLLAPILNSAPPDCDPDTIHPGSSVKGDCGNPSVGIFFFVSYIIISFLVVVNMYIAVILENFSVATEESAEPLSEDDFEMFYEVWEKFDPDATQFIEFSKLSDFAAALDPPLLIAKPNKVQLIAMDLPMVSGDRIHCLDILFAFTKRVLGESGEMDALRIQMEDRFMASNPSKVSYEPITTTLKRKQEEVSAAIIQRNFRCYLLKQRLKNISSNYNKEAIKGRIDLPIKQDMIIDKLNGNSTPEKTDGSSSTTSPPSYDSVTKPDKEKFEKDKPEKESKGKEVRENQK
Method: as §1, with “expressing the NaV of interest” for “expressing the CaV of interest”, “stimulated with either chemical or electrical means” for “stimulated with electrical means”, “evoke a NaV dependent membrane” for “evoke a CaV dependent membrane”
as §2
The following is an example of how NaV1.3 inhibition activity is measured using the optical membrane potential method#2. Other subtypes are performed in an analogous mode in a cell line expressing the NaV of interest.
HEK293 cells stably expressing NaV1.3 are plated into 96-well microtiter plates. After an appropriate incubation period, the cells are stained with the voltage sensitive dyes CC2-DMPE/DiSBAC2(3) as follows.
as §3, with “pluronic,” for “Pluronic,”
2X DISBAC2(3) with ABSC1=6 μM DISBAC2(3) and 1 mM ABSC1: The required amount of 10 mM DISBAC2(3) is added to a 50 ml conical tube and mixed with 1 μL 10% pluronic for each mL of solution to be made and vortexed together. Then HBSS/HEPES is added to make up 2× solution. Finally, the ABSC1 is added.
The 2X DiSBAC2(3) solution can be used to solvate compound plates. Note that compound plates are made at 2× drug concentration. Wash stained plate again, leaving residual volume of 50 Add 50 μL/well of the 2X DiSBAC2(3) w/ABSC1. Stain for 30 minutes in the dark at RT.
as §4
as §5, with “• 1. Insert or use electrodes into each well to be assayed. • 2. Use” for “Use”, “3” for “3-5”, “state. Data Analysis” for “state.”
as §6, §7
Control responses are obtained by performing assays in the presence of a compound with the desired properties (positive control), such as tetracaine, and in the absence of pharmacological agents (negative control). Responses to the negative (N) and positive (P) controls are calculated as above. The compound antagonist activity A is defined as: […]

| Structure (SMILES) | IC50 (CaV2.2) [µM] | IC50 (NaV1.3) [µM] |
| --- | --- | --- |
| CCC1CCC(C)N(C(=O)c2cnc(N(C)CC)nc2-c2ccccc2F)C1 (stereo not drawn) [compound 282] | 2 to 10 | > 10 |
| CCN(C)C(=O)c1cnc(N2CCCC(C(N)=O)C2)nc1-c1ccc(C#N)cc1 (stereo not drawn) [compound 284] | > 10 | > 10 |
| COc1ccc(CCN(C)c2ncc(C(=O)N3CC(C)CC(C)C3)c(-c3ccc(C#N)cc3)n2)cc1OC (stereo not drawn) [compound 285] | > 10 | > 10 |
| CC1CCCCC1NC(=O)c1cnc(N2CCCC(C(N)=O)C2)nc1-c1ccc(C#N)cc1 (stereo not drawn) [compound 286] | > 10 | > 10 |
| Cc1cccc(-c2nc(NC3CC4CC(C3C)C4(C)C)ncc2C(=O)N2CCOCC2)c1 (stereo not drawn) [compound 288] | > 10 | > 10 |
| CCN(Cc1ccccc1)C(=O)c1cnc(N2CCCC(C(N)=O)C2)nc1-c1ccccc1F (stereo not drawn) [compound 289] | > 10 | > 10 |
| CCN(Cc1ccccc1)C(=O)c1cnc(N2CCN(C(C)=O)CC2)nc1-c1ccccc1F [compound 290] | > 10 | > 10 |
| CC(=O)NCCNc1ncc(C(=O)N(Cc2ccccc2)C(C)C)c(-c2ccccc2F)n1 [compound 291] | > 10 | > 10 |
| COc1ccc(CCN(C)c2ncc(C(=O)N3CCCC3)c(-c3ccc(C#N)cc3)n2)cc1OC [compound 292] | > 10 | > 10 |
| Cc1cccc(-c2nc(N3CCOCC3)ncc2C(=O)NCc2cccc(C(F)(F)F)c2)c1 [compound 293] | > 10 | > 10 |
| CCC1CCC(C)N(C(=O)c2cnc(NCCCOC)nc2-c2ccc(C#N)cc2)C1 (stereo not drawn) [compound 294] | > 10 | > 10 |
| CC(C)CN(C)C(=O)c1cnc(NCCc2cccc(F)c2)nc1-c1ccc(C#N)cc1 [compound 295] | 2 to 10 | > 10 |
| COCCCNc1ncc(C(=O)N(Cc2ccccc2)C(C)C)c(-c2ccccc2F)n1 [compound 296] | > 10 | > 10 |
| COCCNc1ncc(C(=O)NCC2CCCCC2)c(-c2ccc(-c3ccccc3)cc2)n1 [compound 297] | > 10 | > 10 |
| CN(C(=O)c1cnc(NCC2CC2)nc1-c1ccc(C#N)cc1)C1CCCCC1 [compound 298] | > 10 | > 10 |
| CCCCNC(=O)c1cnc(N(C)CCc2ccc(OC)c(OC)c2)nc1-c1ccc(C#N)cc1 [compound 299] | > 10 | > 10 |
| COCCNc1ncc(C(=O)N(Cc2ccccc2)C(C)C)c(-c2ccccc2F)n1 [compound 300] | > 10 | > 10 |
| CC(C)N(Cc1ccccc1)C(=O)c1cnc(NCc2ccc3c(c2)OCO3)nc1-c1ccccc1F [compound 301] | > 10 | > 10 |
| COc1ccccc1CCNC(=O)c1cnc(N2CCOCC2)nc1-c1ccccc1F [compound 302] | > 10 | > 10 |
| COCCCNc1ncc(C(=O)N(C)C2CCCCC2)c(-c2ccc(C#N)cc2)n1 [compound 303] | > 10 | > 10 |

| Structure (SMILES) | IC50 (CaV2.2) [µM] | IC50 (NaV1.3) [µM] |
| --- | --- | --- |
| Cc1cccc(-c2nc(NCc3ccccc3)ncc2C(=O)N2CCOCC2)c1 [compound 304] | > 10 | > 10 |
| CCC(C)NC(=O)c1cnc(NCCc2ccc(Cl)cc2)nc1-c1ccccc1F (stereo not drawn) [compound 305] | > 10 | > 10 |
| Cc1cccc(-c2nc(NCC3CCCCC3)ncc2C(=O)N2CCOCC2)c1 [compound 306] | > 10 | > 10 |
| COCCCNC(=O)c1cnc(N2CCOCC2)nc1-c1cccc(C)c1 [compound 307] | > 10 | > 10 |
| CCN(Cc1cccc(C)c1)C(=O)c1cnc(NCCNC(C)=O)nc1-c1ccccc1F [compound 308] | > 10 | > 10 |
| CCC(C)NC(=O)c1cnc(NC2CCCCC2)nc1-c1ccc(C#N)cc1 (stereo not drawn) [compound 309] | > 10 | > 10 |
| COCCCNC(=O)c1cnc(NC2CCCCC2)nc1-c1ccc(-c2ccccc2)cc1 [compound 310] | > 10 | > 10 |
| CCN(Cc1ccccc1)C(=O)c1cnc(N2CCOCC2)nc1-c1ccc(C#N)cc1 [compound 313] | > 10 | > 10 |
| CCN(C)c1ncc(C(=O)NCCOC)c(-c2ccc(C#N)cc2)n1 [compound 314] | > 10 | > 10 |
| COc1ccc(CCNc2ncc(C(=O)N3CCC(C)CC3)c(-c3ccc(C#N)cc3)n2)cc1 [compound 316] | > 10 | > 10 |
| CCN(C)C(=O)c1cnc(N2CCOCC2)nc1-c1ccccc1F [compound 317] | > 10 | > 10 |
| CC(=O)NCCNc1ncc(C(=O)N(Cc2ccccc2)C(C)C)c(-c2ccc(C#N)cc2)n1 [compound 319] | > 10 | > 10 |
| CCCCNc1ncc(C(=O)N2CC(C)CC(C)C2)c(-c2ccc(C#N)cc2)n1 (stereo not drawn) [compound 320] | > 10 | > 10 |
| COCCNc1ncc(C(=O)N2CCOCC2)c(-c2cccc(C)c2)n1 [compound 321] | > 10 | > 10 |
| CC(C)CN(C)C(=O)c1cnc(N2CCCCC2)nc1-c1ccc(C#N)cc1 [compound 322] | > 10 | > 10 |
| O=C(c1cnc(N2CCOCC2)nc1-c1ccccc1F)N1CCCCC1 [compound 323] | > 10 | > 10 |
| COCCCNC(=O)c1cnc(N2CCOCC2)nc1-c1ccccc1F [compound 324] | > 10 | > 10 |
| COCCNc1ncc(C(=O)N2CC(C)CC(C)C2)c(-c2cccc(C)c2)n1 (stereo not drawn) [compound 325] | > 10 | > 10 |
| CC(C)N(Cc1ccccc1)C(=O)c1cnc(N2CCOCC2)nc1-c1ccccc1F [compound 326, 4-(2-Fluoro-phenyl)-2-morpholin-4-yl-pyrimidine-5-carboxylic acid benzyl-isopropyl-amide] | 2 to 10 | > 10 |

— patent US8546414B2, “Ion channel modulators and methods of use” (Vertex Pharmaceuticals Incorporated, priority 2004, dated 2013)
